Measured values published in US10294202B2, “Pyrrolidinones as herbicides” (FMC Corporation, priority 2013, dated 2019).

Tests used:
rice = assay: Test B flooded paddy test; format: in vivo, Oryza sativa; settings: 500 g ai/ha, Flood; scale of 0 to 100 where 0 is no effect and 100 is complete control
Method in brief: (§1)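 Scored visually 0–100 (0 no effect, 100 complete control) versus controls after 13 to 15 greenhouse days. Treatment: compound added to paddy water kept 3 cm above soil, on 2-leaf-stage plants.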

wheat = assay: Test A pre-/postemergence herbicide test; format: in vivo, Triticum aestivum; settings: Postemergence
Method in brief: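 Greenhouse pot test with pre- and postemergence application of surfactant-containing solvent formulations. Postemergence plants were 2–10 cm, one- to two-leaf stage. Response scored visually after ~10 days, 0 (no effect) to 100 (complete control).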

velvetleaf = assay: Test C pre-/postemergence herbicide test; format: in vivo, Abutilon theophrasti
Method in brief: (§2)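 Greenhouse pots; formulation = non-phytotoxic solvent mix + surfactant. PRE onto seeds in loam:sand; POST at 1–4 leaves (2–18 cm) in peat moss/vermiculite medium. Read-out: visual % control vs untreated, day 13–15.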

johnsongrass = assay: Test C pre-/postemergence herbicide test; format: in vivo, Sorghum halepense
Method in brief: as §2

crabgrass, large = assay: Test C pre-/postemergence herbicide test; format: in vivo, Digitaria sanguinalis
Method in brief: as §2

barnyardgrass = assay: Test B flooded paddy test; format: in vivo, Echinochloa crus-galli; settings: 500 g ai/ha, Flood; scale of 0 to 100 where 0 is no effect and 100 is complete control
Method in brief: as §1

oilseed rape = assay: Test C pre-/postemergence herbicide test; format: in vivo, Brassica napus
Method in brief: as §2

sedge, umbrella = assay: Test B flooded paddy test; format: in vivo, Cyperus difformis; settings: 500 g ai/ha, Flood; scale of 0 to 100 where 0 is no effect and 100 is complete control
Method in brief: as §1

wheat (winter wheat) = assay: Test C pre-/postemergence herbicide test; format: in vivo, Triticum aestivum
Method in brief: as §2

ragweed = assay: Test C pre-/postemergence herbicide test; format: in vivo, Ambrosia elatior
Method in brief: as §2

blackgrass = assay: Test C pre-/postemergence herbicide test; format: in vivo, Alopecurus myosuroides
Method in brief: as §2

pigweed = assay: Test C pre-/postemergence herbicide test; format: in vivo, Amaranthus retroflexus
Method in brief: as §2

[1] = Postemergence, 31 g ai/ha, scale 0 to 100 (0 no effect, 100 complete control)
[2] = Postemergence, 62 g ai/ha, scale 0 (no effect) to 100 (complete control)
[3] = Postemergence, 125 g ai/ha, scale 0 to 100 (0 no effect, 100 complete control)
[4] = Postemergence, 250 g ai/ha, scale 0 to 100 (0 no effect, 100 complete control)
[5] = Preemergence, 31 g ai/ha, scale 0 to 100, 0 is no effect and 100 is complete control
[6] = Preemergence, 62 g ai/ha, scale 0 to 100 (0 no effect, 100 complete control)
[7] = Preemergence, 125 g ai/ha, scale 0 to 100 (0 no effect, 100 complete control)

## O=C1NCC(c2cc(F)cc(F)c2)C1C(=O)Nc1cccc(F)c1F (racemic) [Compound 279]
rice
  Plant response rating, Rice: 10
wheat; 125 g ai/ha, visual rating on 0 to 100 scale (0 no effect, 100 complete control), approx. 10 days
  Plant response rating, Wheat: 40
wheat; 500 g ai/ha, 0 to 100 scale (0 no effect, 100 complete control)
  Plant response rating, Wheat: 60
velvetleaf; [1]
  Plant response rating, Velvetleaf: 0
velvetleaf; [2]
  Plant response rating, Velvetleaf: 10
velvetleaf; [3]
  Plant response rating, Velvetleaf: 10
velvetleaf; [4]
  Plant response rating, Velvetleaf: 10
velvetleaf; [5]
  Velvetleaf plant response rating: 0
velvetleaf; [6]
  Velvetleaf plant response rating: 0
velvetleaf; [7]
  Plant response rating, Velvetleaf: 0
velvetleaf; Preemergence, 250 g ai/ha
  Plant response rating (scale of 0 to 100), Velvetleaf: 30
johnsongrass; [1]
  Plant response rating, Johnsongrass: 0
johnsongrass; [2]
  Plant response rating, Johnsongrass: 0
johnsongrass; [3]
  Plant response rating, Johnsongrass: 0
johnsongrass; [4]
  Plant response rating, Johnsongrass: 0
johnsongrass; [5]
  Johnsongrass plant response rating: 0
johnsongrass; [6]
  Johnsongrass plant response rating: 25
johnsongrass; [7]
  Plant response rating, Johnsongrass: 70
johnsongrass; Preemergence, 250 g ai/ha
  Plant response rating (scale of 0 to 100), Johnsongrass: 80
crabgrass, large; [1]
  Plant response rating, Crabgrass, Large: 25
crabgrass, large; [2]
  Plant response rating, Crabgrass, Large: 65
crabgrass, large; [3]
  Plant response rating, Crabgrass, Large: 70
crabgrass, large; [4]
  Plant response rating, Crabgrass, Large: 80
crabgrass, large; [5]
  Crabgrass, Large plant response rating: 95
crabgrass, large; [6]
  Crabgrass, Large plant response rating: 95
crabgrass, large; [7]
  Plant response rating, Crabgrass, Large: 98
crabgrass, large; Preemergence, 250 g ai/ha
  Plant response rating (scale of 0 to 100), Crabgrass, Large: 100
barnyardgrass
  Plant response rating, Barnyardgrass: 75
Oilseed rape; [1]
  Plant response rating, Oilseed Rape: 0
Oilseed rape; [2]
  Plant response rating, Oilseed Rape: 30
Oilseed rape; [3]
  Plant response rating, Oilseed Rape: 0
Oilseed rape; [4]
  Plant response rating, Oilseed Rape: 0
Oilseed rape; [5]
  Oilseed Rape plant response rating: 0
Oilseed rape; [6]
  Oilseed Rape plant response rating: 0
Oilseed rape; [7]
  Plant response rating, Oilseed Rape: 30
Oilseed rape; Preemergence, 250 g ai/ha
  Plant response rating (scale of 0 to 100), Oilseed Rape: 60
sedge, umbrella
  Plant response rating, Sedge, Umbrella: 0
Wheat (winter wheat); [1]
  Plant response rating, Wheat: 0
Wheat (winter wheat); [2]
  Plant response rating, Wheat: 0
Wheat (winter wheat); [3]
  Plant response rating, Wheat: 0
Wheat (winter wheat); [4]
  Plant response rating, Wheat: 0
Wheat (winter wheat); [5]
  Wheat plant response rating: 0
Wheat (winter wheat); [6]
  Wheat plant response rating: 15
Wheat (winter wheat); Preemergence, 250 g ai/ha
  Plant response rating (scale of 0 to 100), Wheat: 30
ragweed; [1]
  Plant response rating, Ragweed: 15
ragweed; [2]
  Plant response rating, Ragweed: 20
ragweed; [3]
  Plant response rating, Ragweed: 35
ragweed; [4]
  Plant response rating, Ragweed: 35
ragweed; [5]
  Ragweed plant response rating: 0
ragweed; [6]
  Ragweed plant response rating: 0
ragweed; [7]
  Plant response rating, Ragweed: 10
ragweed; Preemergence, 250 g ai/ha
  Plant response rating (scale of 0 to 100), Ragweed: 65
blackgrass; [1]
  Plant response rating, Blackgrass: 0
blackgrass; [2]
  Plant response rating, Blackgrass: 0
blackgrass; [3]
  Plant response rating, Blackgrass: 0
blackgrass; [4]
  Plant response rating, Blackgrass: 0
blackgrass; [5]
  Blackgrass plant response rating: 0
blackgrass; [6]
  Blackgrass plant response rating: 0
blackgrass; [7]
  Plant response rating, Blackgrass: 30
blackgrass; Preemergence, 250 g ai/ha
  Plant response rating (scale of 0 to 100), Blackgrass: 85
pigweed; [1]
  Plant response rating, Pigweed: 30
pigweed; [2]
  Plant response rating, Pigweed: 10
pigweed; [3]
  Plant response rating, Pigweed: 30
pigweed; [4]
  Plant response rating, Pigweed: 20
pigweed; [5]
  Pigweed plant response rating: 0
pigweed; [6]
  Pigweed plant response rating: 5
pigweed; [7]
  Plant response rating, Pigweed: 0
pigweed; Preemergence, 250 g ai/ha
  Plant response rating (scale of 0 to 100), Pigweed: 75

## O=C1NCC(c2cccc(OC(F)F)c2)C1C(=O)Nc1ccccc1F (centres unmarked) [Compound 223]
rice
  Plant response rating, Rice: 0
wheat; 125 g ai/ha, 0 to 100 scale, 0 is no effect, 100 is complete control
  Plant response rating, Wheat: 40
wheat; 500 g ai/ha
  Wheat plant response rating (0 to 100 scale, 0 is no effect, 100 is complete control): 50
velvetleaf; [1]
  Plant response rating, Velvetleaf: 0
velvetleaf; [2]
  Plant response rating, Velvetleaf: 0
velvetleaf; [3]
  Plant response rating, Velvetleaf: 0
velvetleaf; [4]
  Plant response rating, Velvetleaf: 20
velvetleaf; [5]
  Velvetleaf plant response rating: 0
velvetleaf; [6]
  Velvetleaf plant response rating: 0
velvetleaf; [7]
  Plant response rating, Velvetleaf: 25
velvetleaf; Preemergence, 250 g ai/ha
  Plant response rating (scale of 0 to 100), Velvetleaf: 35
johnsongrass; [1]
  Plant response rating, Johnsongrass: 0
johnsongrass; [2]
  Plant response rating, Johnsongrass: 0
johnsongrass; [3]
  Plant response rating, Johnsongrass: 0
johnsongrass; [4]
  Plant response rating, Johnsongrass: 0
johnsongrass; [5]
  Johnsongrass plant response rating: 0
johnsongrass; [6]
  Johnsongrass plant response rating: 0
johnsongrass; [7]
  Plant response rating, Johnsongrass: 35
johnsongrass; Preemergence, 250 g ai/ha
  Plant response rating (scale of 0 to 100), Johnsongrass: 55
crabgrass, large; [1]
  Plant response rating, Crabgrass, Large: 0
crabgrass, large; [2]
  Plant response rating, Crabgrass, Large: 10
crabgrass, large; [3]
  Plant response rating, Crabgrass, Large: 55
crabgrass, large; [4]
  Plant response rating, Crabgrass, Large: 80
crabgrass, large; [5]
  Crabgrass, Large plant response rating: 85
crabgrass, large; [6]
  Crabgrass, Large plant response rating: 90
crabgrass, large; [7]
  Plant response rating, Crabgrass, Large: 95
crabgrass, large; Preemergence, 250 g ai/ha
  Plant response rating (scale of 0 to 100), Crabgrass, Large: 100
barnyardgrass
  Plant response rating, Barnyardgrass: 75
Oilseed rape; [1]
  Plant response rating, Oilseed Rape: 0
Oilseed rape; [2]
  Plant response rating, Oilseed Rape: 0
Oilseed rape; [3]
  Plant response rating, Oilseed Rape: 0
Oilseed rape; [4]
  Plant response rating, Oilseed Rape: 10
Oilseed rape; [5]
  Oilseed Rape plant response rating: 0
Oilseed rape; [6]
  Oilseed Rape plant response rating: 0
Oilseed rape; [7]
  Plant response rating, Oilseed Rape: 0
Oilseed rape; Preemergence, 250 g ai/ha
  Plant response rating (scale of 0 to 100), Oilseed Rape: 5
sedge, umbrella
  Plant response rating, Sedge, Umbrella: 0
Wheat (winter wheat); [1]
  Plant response rating, Wheat: 0
Wheat (winter wheat); [2]
  Plant response rating, Wheat: 0
Wheat (winter wheat); [3]
  Plant response rating, Wheat: 0
Wheat (winter wheat); [4]
  Plant response rating, Wheat: 0
Wheat (winter wheat); [5]
  Wheat plant response rating: 0
Wheat (winter wheat); [6]
  Wheat plant response rating: 5
Wheat (winter wheat); [7]
  Plant response rating, Wheat: 10
Wheat (winter wheat); Preemergence, 250 g ai/ha
  Plant response rating (scale of 0 to 100), Wheat: 35
ragweed; [1]
  Plant response rating, Ragweed: 0
ragweed; [2]
  Plant response rating, Ragweed: 0
ragweed; [3]
  Plant response rating, Ragweed: 35
ragweed; [4]
  Plant response rating, Ragweed: 35
ragweed; [5]
  Ragweed plant response rating: 0
ragweed; [6]
  Ragweed plant response rating: 0
ragweed; [7]
  Plant response rating, Ragweed: 10
ragweed; Preemergence, 250 g ai/ha
  Plant response rating (scale of 0 to 100), Ragweed: 25
blackgrass; [1]
  Plant response rating, Blackgrass: 0
blackgrass; [2]
  Plant response rating, Blackgrass: 0
blackgrass; [3]
  Plant response rating, Blackgrass: 0
blackgrass; [4]
  Plant response rating, Blackgrass: 0
blackgrass; [5]
  Blackgrass plant response rating: 35
blackgrass; Preemergence, 62 g ai/ha, scale 0 to 100
  Plant response rating, Blackgrass: 35
blackgrass; [7]
  Plant response rating, Blackgrass: 85
blackgrass; Preemergence, 250 g ai/ha
  Plant response rating (scale of 0 to 100), Blackgrass: 85
pigweed; [1]
  Plant response rating, Pigweed: 5
pigweed; [2]
  Plant response rating, Pigweed: 10
pigweed; [3]
  Plant response rating, Pigweed: 10
pigweed; [4]
  Plant response rating, Pigweed: 60
pigweed; [5]
  Pigweed plant response rating: 20
pigweed; [6]
  Pigweed plant response rating: 5
pigweed; [7]
  Plant response rating, Pigweed: 20
pigweed; Preemergence, 250 g ai/ha
  Plant response rating (scale of 0 to 100), Pigweed: 30
